Measured values reported in ChEMBL document CHEMBL5143744, “Discovery of Tenapanor: A First-in-Class Minimally Systemic Inhibitor of Intestinal Na+/H+ Exchanger Isoform 3” (ACS Med Chem Lett, 2022).
pIC50: −log10 of the molar value. The source made the active and inactive calls. No cut-off for these calls is given here.

Columns and labels:
[1] = In vivo inhibition of NEH3 in Sprague-Dawley rat assessed as fecal form score at 3 mg/kg, po administered via gavage measured after 6 hrs; format: functional
[2] = In vivo inhibition of NEH3 in Sprague-Dawley rat assessed as sodium excretion in urine at 3 mg/kg, po administered via gavage measured after 16 hrs by ion chromatography relative to control; parameters: scale not given: the % may be the effect or the level left
[3] = Cmax in Sprague-Dawley rat at 17 mg/kg, po administered via gavage by LC-MS/MS analysis; format: ADME, organism-based; parameters: dose 17 mg/kg, route po; settings: in vivo
[4] = AUC in Sprague-Dawley rat at 17 mg/kg, po administered via gavage by LC-MS/MS analysis; settings: in vivo
[5] = In vivo inhibition of NEH3 in Sprague-Dawley rat assessed as fecal water content at 3 mg/kg, po administered via gavage measured after 6 hrs; format: functional; parameters: scale not given: the % may be the effect or the level left
hERG (KCNH2) = hERG (KCNH2) (Homo sapiens, UniProt Q12809); test: Inhibition of human ERG at 10 uM relative to control; format: toxicity
Chain of hERG (KCNH2) (Q12809 whole entry): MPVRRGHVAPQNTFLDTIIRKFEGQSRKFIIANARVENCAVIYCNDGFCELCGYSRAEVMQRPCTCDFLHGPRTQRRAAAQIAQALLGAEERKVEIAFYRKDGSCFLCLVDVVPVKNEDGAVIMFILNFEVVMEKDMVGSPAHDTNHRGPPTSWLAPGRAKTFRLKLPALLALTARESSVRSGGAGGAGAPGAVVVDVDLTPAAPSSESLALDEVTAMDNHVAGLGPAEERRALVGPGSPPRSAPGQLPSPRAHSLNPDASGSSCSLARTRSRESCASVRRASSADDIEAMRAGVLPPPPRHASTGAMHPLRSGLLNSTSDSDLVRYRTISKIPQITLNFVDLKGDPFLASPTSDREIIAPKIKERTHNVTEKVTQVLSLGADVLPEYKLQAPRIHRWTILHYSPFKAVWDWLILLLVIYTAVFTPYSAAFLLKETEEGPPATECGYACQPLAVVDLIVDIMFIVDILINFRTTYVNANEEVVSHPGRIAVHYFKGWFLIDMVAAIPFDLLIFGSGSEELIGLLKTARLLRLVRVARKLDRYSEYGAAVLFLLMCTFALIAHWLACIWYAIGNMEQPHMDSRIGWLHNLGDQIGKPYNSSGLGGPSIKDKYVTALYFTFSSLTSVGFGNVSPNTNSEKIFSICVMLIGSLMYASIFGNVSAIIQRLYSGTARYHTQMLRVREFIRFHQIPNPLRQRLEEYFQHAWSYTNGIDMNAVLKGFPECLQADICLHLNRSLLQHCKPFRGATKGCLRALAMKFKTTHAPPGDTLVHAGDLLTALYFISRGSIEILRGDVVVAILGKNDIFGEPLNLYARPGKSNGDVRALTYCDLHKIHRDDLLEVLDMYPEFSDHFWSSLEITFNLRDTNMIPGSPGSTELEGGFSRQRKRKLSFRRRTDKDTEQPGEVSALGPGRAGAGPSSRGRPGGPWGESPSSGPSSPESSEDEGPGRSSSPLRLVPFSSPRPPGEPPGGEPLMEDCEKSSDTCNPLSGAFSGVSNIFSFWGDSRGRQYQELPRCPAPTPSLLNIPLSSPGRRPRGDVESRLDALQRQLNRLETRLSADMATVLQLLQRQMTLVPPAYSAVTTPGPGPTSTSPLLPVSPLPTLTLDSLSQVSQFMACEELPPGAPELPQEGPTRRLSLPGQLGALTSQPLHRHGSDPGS

[6] = Cmax in Sprague-Dawley rat at 30 mg/kg, po administered via gavage by LC-MS/MS analysis; format: ADME, organism-based; parameters: dose 30 mg/kg, route po; settings: Sprague-Dawley, in vivo, read-out: Cmax
[7] = Drug metabolism in Sprague-Dawley rat feces at 0.3 mg/kg, po administered via gavage measured after 64 hrs by LC-MS/MS analysis; format: ADME, organism-based; settings: in vivo
[8] = Drug metabolism in Sprague-Dawley rat at 30 mg/kg, po administered via gavage by LC-MS/MS analysis; format: ADME, organism-based; settings: in vivo
[9] = Drug recovery in Sprague-Dawley rat feces at 0.3 mg/kg, po administered via gavage measured after 64 hrs by LC-MS/MS analysis; format: ADME, organism-based; settings: faeces, read-out: Drug recovery
[10] = In vivo inhibition of NEH3 in Sprague-Dawley rat assessed as increase in fecal water content at 0.1 to 3 mg/kg, po administered via gavage measured after 6 hrs; format: functional; parameters: scale not given: the % may be the effect or the level left; settings: dose 0.1-3 mg/kg
Rattus norvegicus = test: In vivo inhibition of NEH3 in Sprague-Dawley rat assessed as reduction in sodium excretion in urine at 0.1 to 3 mg/kg, po administered via gavage measured after 16 hrs by ion chromatography; format: functional, organism-based; settings: dose 0.1-3 mg/kg
[11] = Cmax in Sprague-Dawley rat at 1.8 mg/kg, po administered via gavage by LC-MS/MS analysis; format: ADME, organism-based; parameters: dose 1.8 mg/kg, route po; settings: in vivo
[12] = target: T1, Sodium/hydrogen exchanger 3 (Homo sapiens, UniProt P48764); test: Inhibition of human NHE3 expressed in opossum kidney cells assessed as reduction in Na-HEPES buffer-mediated pH recovery in presence of NEH1 inhibitor ethyl isopropyl amiloride by BCECF-AM dye based fluorescence assay; format: cell-based, Kidney epithelial cell
T1 sequence (P48764 whole entry): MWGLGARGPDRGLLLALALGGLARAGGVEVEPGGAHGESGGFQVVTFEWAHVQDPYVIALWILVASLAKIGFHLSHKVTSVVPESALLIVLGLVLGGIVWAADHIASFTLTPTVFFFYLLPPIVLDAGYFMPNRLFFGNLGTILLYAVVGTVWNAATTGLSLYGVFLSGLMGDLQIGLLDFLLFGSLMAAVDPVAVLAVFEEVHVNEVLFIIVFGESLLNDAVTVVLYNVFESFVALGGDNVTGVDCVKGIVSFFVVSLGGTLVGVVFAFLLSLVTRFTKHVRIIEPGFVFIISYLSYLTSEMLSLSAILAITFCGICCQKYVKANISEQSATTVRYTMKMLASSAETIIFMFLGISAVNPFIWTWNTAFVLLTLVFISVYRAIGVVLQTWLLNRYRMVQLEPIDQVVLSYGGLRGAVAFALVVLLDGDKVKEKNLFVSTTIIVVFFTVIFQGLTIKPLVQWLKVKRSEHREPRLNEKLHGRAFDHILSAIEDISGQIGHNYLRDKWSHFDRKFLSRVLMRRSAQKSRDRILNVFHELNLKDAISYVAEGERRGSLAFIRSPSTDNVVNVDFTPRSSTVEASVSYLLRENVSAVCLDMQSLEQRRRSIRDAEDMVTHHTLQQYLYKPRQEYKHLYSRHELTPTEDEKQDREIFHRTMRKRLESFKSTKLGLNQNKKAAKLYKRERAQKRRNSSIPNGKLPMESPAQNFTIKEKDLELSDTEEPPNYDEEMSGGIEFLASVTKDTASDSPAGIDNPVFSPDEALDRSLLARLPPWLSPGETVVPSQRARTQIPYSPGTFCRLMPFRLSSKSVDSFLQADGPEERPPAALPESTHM

[13] = AUC in Sprague-Dawley rat at 1.8 mg/kg, po administered via gavage by LC-MS/MS analysis; settings: in vivo
[14] = target: Sodium/hydrogen exchanger 3 (Rattus norvegicus, UniProt P26433); test: Inhibition of rat NHE3 expressed in opossum kidney cells assessed as reduction in Na-HEPES buffer-mediated pH recovery in presence of NEH1 inhibitor ethyl isopropyl amiloride by BCECF-AM dye based fluorescence assay; format: cell-based, Kidney epithelial cell
Chain of Sodium/hydrogen exchanger 3 (Rattus norvegicus, UniProt P26433) (P26433 whole entry): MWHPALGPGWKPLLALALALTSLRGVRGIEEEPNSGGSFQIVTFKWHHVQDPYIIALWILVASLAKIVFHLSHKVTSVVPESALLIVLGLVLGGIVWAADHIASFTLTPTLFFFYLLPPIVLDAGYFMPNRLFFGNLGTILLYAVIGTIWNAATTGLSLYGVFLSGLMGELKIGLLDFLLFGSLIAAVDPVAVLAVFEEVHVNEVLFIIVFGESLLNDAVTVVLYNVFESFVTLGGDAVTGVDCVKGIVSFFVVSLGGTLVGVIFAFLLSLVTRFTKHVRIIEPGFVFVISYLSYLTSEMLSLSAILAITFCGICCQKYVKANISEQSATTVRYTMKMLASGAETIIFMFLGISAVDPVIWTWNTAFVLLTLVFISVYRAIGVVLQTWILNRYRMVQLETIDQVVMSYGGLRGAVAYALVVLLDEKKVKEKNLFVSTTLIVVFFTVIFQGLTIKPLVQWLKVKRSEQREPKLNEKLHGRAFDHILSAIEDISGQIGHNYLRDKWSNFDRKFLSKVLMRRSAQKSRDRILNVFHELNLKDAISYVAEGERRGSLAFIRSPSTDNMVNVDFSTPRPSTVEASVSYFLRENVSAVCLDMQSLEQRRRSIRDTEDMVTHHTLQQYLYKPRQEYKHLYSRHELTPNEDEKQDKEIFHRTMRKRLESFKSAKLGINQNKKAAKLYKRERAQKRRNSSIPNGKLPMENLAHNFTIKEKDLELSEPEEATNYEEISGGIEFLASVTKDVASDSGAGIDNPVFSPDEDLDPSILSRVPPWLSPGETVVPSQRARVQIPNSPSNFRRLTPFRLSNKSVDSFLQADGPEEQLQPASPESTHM

[15] = Dose normalized AUC in Sprague-Dawley rat at 5.3 mg/kg, po administered via gavage by LC-MS/MS analysis; format: ADME, organism-based; settings: in vivo
[16] = AUC in Sprague-Dawley rat at 19 mg/kg, po administered via gavage by LC-MS/MS analysis; settings: in vivo
[17] = Cmax in Sprague-Dawley rat at 19 mg/kg, po administered via gavage by LC-MS/MS analysis; format: ADME, organism-based; parameters: dose 19 mg/kg, route po; settings: in vivo

In the case of `CN1Cc2c(Cl)cc(Cl)cc2C(c2ccc(S(=O)(=O)NCCOCCOCCNC(=O)NCCOCCOCCNS(=O)(=O)c3ccc(C4CN(C)Cc5c(Cl)cc(Cl)cc54)cc3)cc2)C1` (racemic), the Activity [1] was 1, the Activity [2] was 107% and the Cmax [3] was < 2 ng/mL. The AUC [4] was < 8 ng·h/mL and the Activity [5] was 49%.

In the case of `CN1Cc2c(Cl)cc(Cl)cc2[C@H](c2cccc(S(=O)(=O)NCCOCCOCCNC(=O)COCC(=O)NCCOCCOCCNS(=O)(=O)c3cccc([C@@H]4CN(C)Cc5c(Cl)cc(Cl)cc54)c3)c2)C1`, the inhibition at 10 µM (hERG (KCNH2)) was < 50%, the Cmax [6] was < 2 ng/mL and the Drug metabolism [7] was “Metabolite_Notdetected”. The Drug metabolism [8] was “Metabolite_Notdetected”, the dose excreted at 64 h [9] was 117% and the Activity [10] was 10%. For the same compound, the inhibition (Rattus norvegicus) was “Active”.

For `CN1Cc2c(Cl)cc(Cl)cc2C(c2cccc(S(=O)(=O)NCCOCCOCCOCCNC(=O)NCCOCCOCCOCCNS(=O)(=O)c3cccc(C4CN(C)Cc5c(Cl)cc(Cl)cc54)c3)c2)C1` (racemic), the Activity [1] was 1, the Cmax [11] was < 20 ng/mL and the Activity [2] was 87%. For the same compound, the pIC50 [12] was 6.70, the AUC [13] was < 75 ng·h/mL and the pIC50 [14] was 7.00. For the same compound, the Activity [5] was 50%.

For `CN1Cc2c(Cl)cc(Cl)cc2C(c2ccc(S(=O)(=O)NCCOCCOCCOCCNC(=O)NCCOCCOCCOCCNS(=O)(=O)c3ccc(C4CN(C)Cc5c(Cl)cc(Cl)cc54)cc3)cc2)C1` (centres undefined), the AUC [15] was < 19 ng·h/mL, the Activity [2] was 25% and the Activity [5] was 60%.

For `CN1Cc2c(Cl)cc(Cl)cc2C(c2ccc(S(=O)(=O)NCCOCCOCCOCCNC(=O)c3ccc(C(=O)NCCOCCOCCOCCNS(=O)(=O)c4ccc(C5CN(C)Cc6c(Cl)cc(Cl)cc65)cc4)cc3)cc2)C1` (racemic), the Activity [1] was 1.5, the Activity [2] was 50% and the pIC50 [12] was 7.40. The AUC [16] was < 9 ng·h/mL, the Cmax [17] was < 3 ng/mL and the pIC50 [14] was 7.90. It also gave an Activity [5] of 56%.
